The molecules below were run against SARS-CoV-2 3CL-protease (Severe acute respiratory syndrome coronavirus 2 (2019-nCoV) (SARS-CoV-2), UniProt P0DTD1) (assay: SARS-CoV-2 3C-like (3CL) protease fluorescence assay (FRET)). Conditions: not given.
Format: biochemical

Row | SMILES | IC50 [nM]
1 | COc1cccc2[nH]c(C(=O)N[C@H](C(=O)N3C[C@]4(C[C@H]3C#N)C(=O)Nc3ccccc34)C(C)OC(C)(C)C)cc12 (stereo partly shown) [Compound 22] | 100 to 1000

Same assay, conditions: read-out: FRET IC50

Row | SMILES | IC50 [nM]
2 | CCCN(C(=O)OCc1ccccc1)[C@@H](CC(C)C)C(=O)N1C[C@]2(C[C@H]1C#N)C(=O)Nc1ccccc12 [Compound 97] | < 100
3 | CN(C(=O)c1cc2c(F)cc(F)cc2[nH]1)[C@@H](CC1CCC1)C(=O)N1C[C@]2(C[C@H]1C#N)C(=O)Nc1ccccc12 [Compound 91] | < 100
4 | COc1cccc2[nH]c(C(=O)N[C@@H](CC(C)C)C(=O)N3C[C@]4(C[C@H]3C=O)C(=O)N(C)c3ccccc34)cc12 [Compound 119] | < 100
5 | CC(C)C[C@@H](C(=O)N1C[C@]2(C[C@H]1C#N)C(=O)Nc1ccccc12)N(C)C(=O)c1cc2c(Cl)cc(Cl)cc2[nH]1 [Compound 74] | < 100
6 | CC(C)C[C@@H](C(=O)N1C[C@]2(C[C@H]1C#N)C(=O)Nc1ccccc12)N(C)C(=O)c1n[nH]c2ccccc12 [Compound 75] | < 100
7 | COc1cccc2[nH]c(C(=O)N[C@@H](CC(C)C)C(=O)N3C[C@]4(C[C@H]3C=O)C(=O)Nc3ccccc34)cc12 [Compound 23] | < 100
8 | CC(C)C[C@H](NC(=O)c1cc2c(F)cccc2[nH]1)C(=O)N1C[C@]2(C[C@H]1C=O)C(=O)Nc1ccccc12 [Compound 25] | < 100
9 | CC(C)C[C@@H](C(=O)N1C[C@]2(C[C@H]1C#N)C(=O)Nc1ccccc12)N(C)C(=O)c1cc2cc(F)c(F)cc2[nH]1 [Compound 69] | < 100
10 | CC(C)(C)OC[C@H](NC(=O)OCc1ccccc1)C(=O)N1C[C@]2(C[C@H]1C#N)C(=O)Nc1ccccc12 [Compound 10] | 100 to 1000
11 | CN(C(=O)c1cc2c(F)cc(F)cc2[nH]1)[C@@H](Cc1ccccc1)C(=O)N1C[C@]2(C[C@H]1C#N)C(=O)Nc1ccccc12 [Compound 81] | < 100
12 | CC(C)C[C@@H](C(=O)N1C[C@]2(C[C@H]1C#N)C(=O)Nc1ccccc12)N(C)C(=O)c1cc2c(F)c(F)c(F)cc2[nH]1 [Compound 83] | < 100
13 | CC(C)C[C@@H](C(=O)N1C[C@]2(C[C@H]1C#N)C(=O)Nc1ccccc12)N(C)C(=O)c1cc2c(Br)cccc2[nH]1 [Compound 79] | < 100
14 | CN(C(=O)c1cc2c(F)c(F)ccc2[nH]1)[C@@H](CC(C)(C)C)C(=O)N1C[C@]2(C[C@H]1C#N)C(=O)Nc1ccccc12 [Compound 86] | < 100
15 | CC(C)C[C@@H](C(=O)N1C[C@]2(C[C@H]1C#N)C(=O)Nc1ccccc12)N(C)C(=O)c1cc2cc(-c3ccccc3)ccc2[nH]1 [Compound 54] | < 100
16 | CN(C(=O)c1cc2c(F)cccc2[nH]1)[C@@H](CC1CC1)C(=O)N1C[C@]2(C[C@H]1C#N)C(=O)Nc1ccccc12 [Compound 116] | < 100
17 | CN(C(=O)c1cnn(-c2ccccc2C(F)(F)F)c1)[C@@H](CC1CC1)C(=O)N1C[C@]2(C[C@H]1C#N)C(=O)Nc1ccccc12 [Compound 124] | < 100
18 | CN(C(=O)c1cc2c(F)cc(F)cc2[nH]1)[C@@H](CC(C)(C)C)C(=O)N1C[C@]2(C[C@H]1C#N)C(=O)Nc1ccccc12 [Compound 88] | < 100
19 | CN(C(=O)OCc1ccccc1)[C@@H](CC(C)(C)C)C(=O)N1C[C@]2(C[C@H]1C#N)C(=O)Nc1ccccc12 [Compound 40] | < 100
20 | CC(C)C[C@@H](C(=O)N1C[C@]2(C[C@H]1C#N)C(=O)Nc1ccccc12)N(C)C(=O)c1ccc(F)c(Cl)c1 [Compound 63] | < 100
21 | COc1cccc2[nH]c(C(=O)N(C)[C@@H](CC(C)C)C(=O)N3C[C@]4(C[C@H]3C#N)C(=O)Nc3ccccc34)cc12 [Compound 42] | < 100
22 | COc1cccc2[nH]c(C(=O)N(C)[C@@H](CC(C)C)C(=O)N3C[C@]4(C[C@H]3C(=O)C(=O)NC3CCCCC3)C(=O)Nc3ccccc34)cc12 [Compound 34] | > 1000
23 | COc1cccc2[nH]c(C(=O)N[C@H](CC(C)(C)C)C(=O)N3C[C@]4(C[C@H]3C#N)C(=O)Nc3ccccc34)cc12 [Compound 16] | 100 to 1000
24 | COc1cccc2[nH]c(C(=O)N[C@@H](CC3CCCCC3)C(=O)N3C[C@]4(C[C@H]3C#N)C(=O)Nc3ccccc34)cc12 [Compound 13] | < 100
25 | COc1cccc2[nH]c(C(=O)N[C@H](CC3CCCCC3)C(=O)N3C[C@]4(C[C@H]3C#N)C(=O)Nc3ccccc34)cc12 [Compound 14] | 100 to 1000
26 | CC(C)CC[C@@H](C(=O)N1C[C@]2(C[C@H]1C#N)C(=O)Nc1ccccc12)N(C)C(=O)c1cc2c(F)cc(F)cc2[nH]1 [Compound 104] | < 100
27 | CC(C)C[C@@H](C(=O)N1C[C@]2(C[C@H]1C#N)C(=O)Nc1ccccc12)N(C)C(=O)c1ncccc1Cl [Compound 59] | < 100
28 | CN(C(=O)c1cc2c(F)cccc2[nH]1)[C@@H](CC(C)(C)C)C(=O)N1C[C@]2(C[C@H]1C#N)C(=O)Nc1ccccc12 [Compound 87] | < 100
29 | CC(C)C[C@H](NC(=O)OCC1(c2ccccc2)CC1)C(=O)N1C[C@]2(C[C@H]1C#N)C(=O)Nc1ccccc12 [Compound 8] | < 100

Row | SMILES | IC50 [nM]
30 | CN(C(=O)c1cc2c(F)cc(F)c(F)c2[nH]1)[C@@H](CC1CCCC1)C(=O)N1C[C@]2(C[C@H]1C#N)C(=O)Nc1ccccc12 [Compound 109] | < 100
31 | CN(C(=O)c1cc2c(F)cccc2[nH]1)[C@@H](CC1CCC1)C(=O)N1C[C@]2(C[C@H]1C#N)C(=O)Nc1ccccc12 [Compound 93] | < 100
32 | COc1cccc2[nH]c(C(=O)N[C@@H](CC(C)C)C(=O)N3C[C@]4(C[C@H]3C(O)S(=O)(=O)O)C(=O)Nc3ccccc34)cc12 (stereo partly shown) [Compound 29] | < 100
33 | N#C[C@@H]1C[C@@]2(CN1C(=O)[C@H](CC1CC1)NC(=O)OCc1ccccc1)C(=O)Nc1ccccc12 [Compound 4] | < 100
34 | CC(C)C[C@@H](C(=O)N1C[C@]2(C[C@H]1C#N)C(=O)Nc1ccccc12)N(C)C(=O)c1cc2c(C3CC3)cccc2[nH]1 [Compound 45] | < 100
35 | CC(C)C[C@@H](C(=O)N1C[C@]2(C[C@H]1C#N)C(=O)Nc1ccccc12)N(C)C(=O)c1cncc(C#N)c1 [Compound 60] | < 100
36 | COc1cccc2[nH]c(C(=O)N[C@H](CC(C)C)C(=O)N3C[C@]4(C[C@H]3C#N)C(=O)Nc3ccccc34)cc12 [Compound 12] | > 1000
37 | COc1cccc2[nH]c(C(=O)N[C@@H](CC3CCC3)C(=O)N3C[C@]4(C[C@H]3C#N)C(=O)Nc3ccccc34)cc12 [Compound 17] | < 100
38 | CC(C)(C)C[C@H](NC(=O)c1cc2c(F)c(F)ccc2[nH]1)C(=O)N1C[C@]2(C[C@H]1C#N)C(=O)Nc1ccccc12 [Compound 20] | < 100
39 | CC(C)C[C@@H](C(=O)N1C[C@]2(C[C@H]1C#N)C(=O)Nc1ccccc12)N(C)C(=O)c1cc2ccc(C(C)(C)C)cc2[nH]1 [Compound 57] | < 100
40 | CC(C)C[C@H](NC(=O)OC(C)(C)c1cccc(Cl)c1)C(=O)N1C[C@]2(C[C@H]1C#N)C(=O)Nc1ccccc12 [Compound 9] | 100 to 1000
41 | CC(C)C[C@@H](C(=O)N1C[C@]2(C[C@H]1C#N)C(=O)Nc1ccccc12)N(C)C(=O)c1cc2c(C#N)cccc2[nH]1 [Compound 67] | < 100
42 | CN(C(=O)c1cc2c(OC(F)(F)F)cccc2[nH]1)[C@@H](CC1CCCC1)C(=O)N1C[C@]2(C[C@H]1C#N)C(=O)Nc1ccccc12 [Compound 108] | < 100
43 | CC(C)C[C@@H](C(=O)N1C[C@]2(C[C@H]1C#N)C(=O)Nc1ccccc12)N(C)C(=O)c1cc2c(Br)ccc(Cl)c2[nH]1 [Compound 66] | < 100
44 | CC(C)C[C@@H](C(=O)N1C[C@]2(C[C@H]1C#N)C(=O)Nc1ccccc12)N(C)C(=O)c1cc2ccccc2[nH]1 [Compound 78] | < 100
45 | CC(C)C[C@@H](C(=O)N1C[C@]2(C[C@H]1C#N)C(=O)Nc1ccccc12)N(C)C(=O)c1cc(F)ccc1Cl [Compound 62] | < 100
46 | COc1cccc2[nH]c(C(=O)N(C)[C@@H](CCC(C)C)C(=O)N3C[C@]4(C[C@H]3C#N)C(=O)Nc3ccccc34)cc12 [Compound 105] | < 100
47 | CN(C(=O)c1cc2c(F)cc(F)cc2[nH]1)[C@@H](CC1CCCC1)C(=O)N1C[C@]2(C[C@H]1C#N)C(=O)Nc1ccccc12 [Compound 107] | < 100
48 | CCCN(C(=O)c1cc2c(F)cc(F)cc2[nH]1)[C@@H](CC(C)C)C(=O)N1C[C@]2(C[C@H]1C#N)C(=O)Nc1ccccc12 [Compound 99] | < 100
49 | COc1cccc2c1cc(C(=O)N(C)[C@@H](CC(C)C)C(=O)N1C[C@]3(C[C@H]1C#N)C(=O)Nc1ccccc13)n2C [Compound 53] | < 100
50 | CC(C)C[C@@H](C(=O)N1C[C@]2(C[C@H]1C#N)C(=O)Nc1ccccc12)N(C)C(=O)c1[nH]c2ccc(F)cc2c1Cl [Compound 77] | 100 to 1000
51 | CC(C)C[C@@H](C(=O)N1C[C@]2(C[C@H]1C#N)C(=O)Nc1ccccc12)N(C)C(=O)c1sc2cc(F)ccc2c1Cl [Compound 43] | 100 to 1000
52 | CC(C)C[C@@H](C(=O)N1C[C@]2(C[C@H]1C#N)C(=O)Nc1ccccc12)N(C)C(=O)c1cc2cc(C(C)(C)C)ccc2[nH]1 [Compound 56] | < 100
53 | CCN(C(=O)c1cc2c(F)cccc2[nH]1)[C@@H](CC(C)C)C(=O)N1C[C@]2(C[C@H]1C#N)C(=O)Nc1ccccc12 [Compound 95] | < 100
54 | CC(C)C[C@H](NC(=O)c1cc2c(F)cccc2[nH]1)C(=O)N1C[C@]2(C[C@H]1C#N)C(=O)Nc1c(F)cccc12 [Compound 28] | < 100
55 | CC(C)C[C@@H](C(=O)N1C[C@]2(C[C@H]1C#N)C(=O)Nc1ccccc12)N(C)C(=O)c1cc2c(F)cc(F)cc2[nH]1 [Compound 46] | < 100
56 | CC(C)(F)C[C@H](NC(=O)OCc1ccccc1)C(=O)N1C[C@]2(C[C@H]1C#N)C(=O)Nc1ccccc12 [Compound 7] | < 100

Same assay, conditions: recombinant SARS-CoV-2 3CL-protease 10 nM, 30 min preincubation, run in duplicate; read-out: FRET IC50

Row | SMILES | IC50 [nM]
57 | COc1cc(C#N)cc2[nH]c(C(=O)N[C@@H](CC(C)C)C(=O)N3C[C@]4(C[C@H]3C#N)C(=O)Nc3ccccc34)cc12 [Compound 26] | 100 to 1000

What follows are molecules tested on 229E human corona virus (hCoV) (assay: 229E live virus assay). Conditions: Human coronavirus 229E, MRC5, 144 h, read-out: 229E EC50.
Format: cell-based, hCoV-229E

Row | SMILES | EC50 [nM]
58 | [2H]C([2H])([2H])N(C(=O)c1cnn(C(C)(C)C)c1)[C@@H](CC1CC1)C(=O)N1C[C@]2(C[C@H]1C#N)C(=O)Nc1ccccc12 [Compound 125] | < 100

Source: patent publication US11352363B1, “Spiropyrrolidine derived antiviral agents” (Enanta Pharmaceuticals, Inc., priority 2020, dated 2022)
